Like-named read-outs stand apart in the source and are kept apart here.
Tested on: adult worms of S. japonicum (Chinese strain)
Assay: microbe, parasite or virus in culture
Conditions: for Mortality (%) 72 h: 100 μM, adult worms in vitro; for mortality at 100 µM: Schistosoma japonicum
Method: S. japonicum cercariae (Chinese strain) were acquired from infected Oncomelania hupensis snails (Wuxi Insect Vector Biology Co., Ltd., China) ([28]). ICR mice (6–8 weeks, 22–25 g; Hunan SJA Laboratory Animal Co., Ltd., China) were percutaneously infected via abdominal exposure to 60 ± 5 cercariae. Adult schistosomes were perfused from the hepatic portal system at 35 dpi using a modified Duvall and DeWitt method ([29]). Animals were housed under controlled conditions (22°C ± 1°C, 12 h light/dark cycle) with ad libitum access to feed and water.
Adult S. japonicum worms isolated from ICR mice were maintained in sterile culture medium (2.0 mL) comprising 77% RPMI 1640 (Lanzhou Bailing Biotech Co., Ltd.; pH 7.5, HEPES-buffered), 20% heat-inactivated fetal bovine serum (Lanzhou Minhai Bio-Engineering Co., Ltd.), and 3% penicillin-streptomycin (100×; 10,000 U/mL penicillin, 10,000 μg/mL streptomycin; New Cell & Molecular Biotech Co., Ltd., China). Incubation was performed at 37°C under 5% CO2. Test compounds were dissolved in DMSO as 0.1 M stock solutions; 2.0 μL aliquots were added to worm-containing media (final concentration: 100 μM in 0.1% DMSO). Negative controls received equivalent volumes of vehicle (0.1% DMSO in RPMI 1640). Parasite viability (motor activity, tegumental integrity, survival) was assessed every 12 h for 72 h using an Olympus CKX53 inverted microscope (n ≥ 3 independent replicates).

[1] = 24 h, read-out: Mortality (%) 24 h, 100 μM, 24 h, adult worms in vitro
[2] = 36 h, read-out: Mortality (%) 36 h, 100 μM, 36 h, adult worms in vitro
[3] = 48 h, read-out: Mortality (%) 48 h, 100 μM, 48 h, adult worms in vitro
[4] = 72 h, read-out: Mortality (%) 72 h, 100 μM, 72 h, adult worms in vitro

Row | Structure (SMILES) | Mortality (%) 72 h (72 h) | mortality at 100 µM [1] | mortality at 100 µM [2] | mortality at 100 µM [3] | mortality at 100 µM [4]
1 | Cc1ccc(N(C)NC(=O)c2ccc(Cl)c(Cl)c2)cc1 [Compound 1] | 100% | 0% | 5% | 60% | > 80%
2 | COc1ccc(N(C)NC(=O)c2ccc(Cl)c(Cl)c2)cc1 [Compound 2] |  | 0% | 0% | 0% | 0%
3 | CN(NC(=O)c1ccc(Cl)c(Cl)c1)c1ccc(F)cc1 [Compound 3] | 85% | 0% | 0% | 45% | > 80%
4 | CN(NC(=O)c1ccc(Cl)c(Cl)c1)c1ccc(Cl)cc1 [Compound 4] |  | 0% | 0% | 0% | 10%
5 | CN(NC(=O)c1ccc(Cl)c(Cl)c1)c1ccc(C#N)cc1 [Compound 6] |  | 0% | 0% | 0% | 20%
6 | Cc1cccc(N(C)NC(=O)c2ccc(Cl)c(Cl)c2)c1 [Compound 7] |  | 0% | 0% | 0% | 0%
7 | CN(NC(=O)c1ccc(Cl)c(Cl)c1)c1cccc(Cl)c1 [Compound 8] | 100% | 0% | 0% | 40% | > 80%
8 | CN(NC(=O)c1ccc(Cl)c(Cl)c1)c1cccc(Br)c1 [Compound 9] | 85% | 0% | 0% | 15% | > 80%
9 | CN(NC(=O)c1ccc(Cl)c(Cl)c1)c1ccccc1F [Compound 11] |  | 0% | 0% | 0% | 0%
10 | CN(NC(=O)c1ccc(Cl)c(Cl)c1)c1ccccc1Cl [Compound 12] |  | 0% | 0% | 0% | 0%
11 | CN(NC(=O)c1ccc(Cl)c(Cl)c1)c1ccc(Cl)c(Cl)c1 [Compound 13] | 100% | 0% | 15% | 50% | > 80%
12 | CN(NC(=O)c1ccc(Cl)c(Cl)c1)c1ccc(Cl)c(C(F)(F)F)c1 [Compound 14] | 95% | 15% | 25% | 55% | > 80%
13 | Cc1ccc(C(=O)NN(C)c2ccc(Cl)c(Cl)c2)cc1 [Compound 15] |  | 0% | 20% | 35% | 65%
14 | COc1ccc(C(=O)NN(C)c2ccc(Cl)c(Cl)c2)cc1 [Compound 16] | 100% | 0% | 0% | 65% | > 90%
15 | CN(NC(=O)c1ccc(Cl)cc1)c1ccc(Cl)c(Cl)c1 [Compound 17] |  | 0% | 5% | 25% | 70%
16 | CN(NC(=O)c1ccc(C(F)(F)F)cc1)c1ccc(Cl)c(Cl)c1 [Compound 19] |  | 0% | 0% | 35% | 80%
17 | CN(NC(=O)c1ccc(C#N)cc1)c1ccc(Cl)c(Cl)c1 [Compound 20] | 100% | 0% | 0% | 60% | > 90%
18 | CN(NC(=O)c1ccc([N+](=O)[O-])cc1)c1ccc(Cl)c(Cl)c1 [Compound 21] |  | 0% | 0% | 30% | 65%
19 | Cc1cccc(C(=O)NN(C)c2ccc(Cl)c(Cl)c2)c1 [Compound 22] |  | 0% | 0% | 0% | 70%

Row | Structure (SMILES) | Mortality (%) 72 h (72 h) | mortality at 100 µM [1] | mortality at 100 µM [2] | mortality at 100 µM [3] | mortality at 100 µM [4]
20 | CN(NC(=O)c1cccc(Cl)c1)c1ccc(Cl)c(Cl)c1 [Compound 23] | 95% | 0% | 5% | 40% | > 90%
21 | CN(NC(=O)c1ccc(F)c(F)c1)c1ccc(Cl)c(Cl)c1 [Compound 24] | 90% | 0% | 5% | 45% | > 90%
22 | CN(NC(=O)c1ccc(F)c(C(F)(F)F)c1)c1ccc(Cl)c(Cl)c1 [Compound 25] |  | 0% | 0% | 30% | 80%
23 | Cc1ccc(N(C)NC(=O)c2ccc(Br)cc2)cc1 [Compound 26] |  | 0% | 0% | 10% | 10%
24 | COc1ccc(N(C)NC(=O)c2ccc(Br)cc2)cc1 [Compound 27] |  | 0% | 0% | 0% | 0%
25 | CN(NC(=O)c1ccc(Br)cc1)c1ccc(F)cc1 [Compound 28] |  | 0% | 0% | 0% | 0%
26 | CN(NC(=O)c1ccc(Br)cc1)c1ccc(Cl)cc1 [Compound 29] |  | 0% | 0% | 0% | 35%
27 | CN(NC(=O)c1ccc(Br)cc1)c1ccc(Br)cc1 [Compound 30] |  | 0% | 10% | 65% | 100%
28 | CN(NC(=O)c1ccc(Br)cc1)c1ccc(C(F)(F)F)cc1 [Compound 31] |  | 0% | 10% | 55% | 75%
29 | CN(NC(=O)c1ccc(Br)cc1)c1ccc(C#N)cc1 [Compound 32] |  | 0% | 0% | 0% | 0%
30 | Cc1cccc(N(C)NC(=O)c2ccc(Br)cc2)c1 [Compound 33] |  | 0% | 15% | 40% | 70%
31 | CN(NC(=O)c1ccc(Br)cc1)c1cccc(Cl)c1 [Compound 34] |  | 0% | 0% | 0% | 90%
32 | CN(NC(=O)c1ccc(Br)cc1)c1cccc(Br)c1 [Compound 35] |  | 0% | 0% | 30% | 60%
33 | CN(NC(=O)c1ccc(Br)cc1)c1cccc(C(F)(F)F)c1 [Compound 36] |  | 0% | 0% | 10% | 80%
34 | Cc1ccccc1N(C)NC(=O)c1ccc(Br)cc1 [Compound 37] |  | 0% | 0% | 0% | 0%
35 | CN(NC(=O)c1ccc(Br)cc1)c1ccccc1F [Compound 38] |  | 0% | 0% | 10% | 10%
36 | CN(NC(=O)c1ccc(Br)cc1)c1ccccc1Cl [Compound 39] |  | 0% | 0% | 10% | 20%
37 | CN(NC(=O)c1ccc(Br)cc1)c1cc(Cl)cc(Cl)c1 [Compound 40] |  | 0% | 20% | 70% | 100%
